Data on 18 compounds can be found in paper PMC5862567, “Validating and enabling phosphoglycerate dehydrogenase (PHGDH) as a target for fragment-based drug discovery in PHGDH-amplified breast cancer” (Oncotarget, 2016).

Assay [1] deals with T1, recombinant full-length PHGDH (Homo sapiens, UniProt O43175).
T1 construct: encoding for the full-length enzyme (aa 1-533); His6 (N, cleaved yes); TEV protease recognition site (N, cleaved yes); made in house; host or cells: E. coli Rosetta (DE3)
T1 sequence (O43175 1-533): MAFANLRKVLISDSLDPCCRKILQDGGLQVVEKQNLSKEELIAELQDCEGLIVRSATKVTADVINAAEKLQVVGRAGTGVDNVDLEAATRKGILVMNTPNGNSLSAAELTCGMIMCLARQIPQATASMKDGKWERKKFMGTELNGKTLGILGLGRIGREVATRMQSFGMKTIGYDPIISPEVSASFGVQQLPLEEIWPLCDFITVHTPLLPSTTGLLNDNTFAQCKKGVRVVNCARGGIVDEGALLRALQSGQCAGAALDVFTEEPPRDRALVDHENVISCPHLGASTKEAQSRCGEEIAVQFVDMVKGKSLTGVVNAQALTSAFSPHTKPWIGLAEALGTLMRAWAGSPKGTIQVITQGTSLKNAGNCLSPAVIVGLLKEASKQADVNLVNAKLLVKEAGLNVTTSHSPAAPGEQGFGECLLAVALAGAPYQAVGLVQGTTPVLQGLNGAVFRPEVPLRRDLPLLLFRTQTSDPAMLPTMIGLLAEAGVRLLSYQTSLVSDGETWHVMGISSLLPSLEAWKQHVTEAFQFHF
The experiment in a line: Differential scanning fluorimetry (DSF) thermal shift assay, fragment screen. The class given is binding. The arrangement: key to Z score: Z-score of Tm shift, in standard deviations from the screen mean. As to conditions: for Z score: average Z score of primary fragment screens by DSF; for ΔTm at 1000 µM: fragment 1 mM, primary DSF screen, 15 μM PHGDH, read-out: ΔTm (screening hit); for ΔTm (repurchased fragment): DSF. The method, then: In this study a ‘rule-of-three’ [18] compliant library of 600 fragments (CRT Cambridge, UK) was screened against recombinant full-length PHGDH using a differential scanning fluorimetry (DSF) assay. PHGDH has an average melting temperature (Tm) of 54 °C. Fragments were screened at 1 mM in the presence of 1 % DMSO. 1 mM NADH was used as positive control, and gave an increased Tm of 61 °C, corresponding to a Δ Tm of 7 °C (Supplementary Figure S2). Hits were determined based on an average Z-score ≥ 1, i.e. to a change in Tm of PHGDH equal to or greater than one standard deviation of the mean (Supplementary Table S1). Applying this threshold, 42 compounds were classified as hits, which corresponds to a hit rate of […]. A subset of 15 fragments was commercially available and were repurchased and further evaluated in an ITC competition experiment (Figure 3, Table 1, Supplementary Figure S3). The ITC competition experiments confirmed binding of 13 fragments to the cofactor-binding pocket of PHGDH. […] In order to further characterise the hits, and to help us prioritise their use as seeds for further hit-expansion studies, we undertook a crystallographic investigation of their respective binding modes.
The DSF assay was performed in 384-well plates (Corning, black) in 25 mM HEPES, pH 7.5, 100 mM NaCl, 0.5 mM TCEP, 10 x SYPRO® Orange (Thermo Fisher Scientific), in a final volume of 15 μL containing 15 μM PHGDH and […]. The fragments were added from a 100 mM master stock in 100 % DMSO to a final concentration of 1 mM using an ECHO® acoustic liquid handler (Labcyte). Reference wells contained DMSO only and 1 mM NADH was used as positive control.
The heat denaturation profile of PHGDH was followed using the fluorescence of Sypro Orange with excitation and emission wavelengths of 470 and 570 nm, respectively. Analysis was performed in GraphPad Prism using the Boltzmann equation to determine the melting temperature, Tm, which is the inflection point of the sigmoidal denaturation curve.

Assay [2] has as its target T2, sPHGDH (aa 3-314), cofactor-binding pocket (Homo sapiens, UniProt O43175).
T2 construct: the truncated version (sPHGDH, aa 3-314); His6 (N, cleaved yes); TEV protease recognition site (N, cleaved yes); made in house; host or cells: E. coli Rosetta (DE3)
T2 sequence (O43175 3-314): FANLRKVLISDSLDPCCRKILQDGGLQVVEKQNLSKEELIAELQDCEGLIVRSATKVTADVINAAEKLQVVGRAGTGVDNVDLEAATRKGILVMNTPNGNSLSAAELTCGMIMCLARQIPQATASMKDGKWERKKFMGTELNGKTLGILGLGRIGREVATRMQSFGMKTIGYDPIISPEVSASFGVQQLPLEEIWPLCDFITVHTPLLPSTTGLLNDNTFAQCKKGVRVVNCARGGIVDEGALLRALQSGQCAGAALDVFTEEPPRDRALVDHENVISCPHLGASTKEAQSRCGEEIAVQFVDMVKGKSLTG
The assay can be described thus: ITC competition experiment (NADH titrated into sPHGDH premixed with fragment). As to conditions: for Kd / ΔH / ΔS: competition ITC, 5 mM fragment, 25 °C; for Kd: 0.5 mM NADH into 0.05 mM sPHGDH, 5 % DMSO; for LE: ΔG per number of non-hydrogen atoms (= #).
Procedure: To remove residual bound cofactor, sPHGDH was incubated with 0.5 equivalents of activated charcoal for 30 minutes at room temperature prior to performing the ITC experiments. […] 1 x 0.5 μL, followed by 17 x 2 μL injections of ligands into protein with 120 seconds spacing between the injections was conducted. Titration of 0.5 mM NADH in 5 % DMSO into 0.05 mM sPHGDH in 5 % DMSO was used as reference.

Values joined by “and” are separate entries in the source; they are usually repeats but may differ in a detail not shown here. Equal entries are not always repeated. “Also recorded” adds a separate entry of the source. Where two headings read alike, the source gives them in different places.

Turning to `CCc1nc(C)c[nH]1` [Fragment 2, 2-Ethyl-4-methylimidazole], in assay [1], the Z score came out at 1.0 ± 1.0, the ΔTm at 1000 µM amounted to 2 ± 2.1 °C and the “ΔTm (repurchased fragment)” value is -0.1 ± 0.2 °C. Further, in assay [2], the Kd result was “No competition”.

As to `Cn1nc(-c2ccccc2)cc1N` [Fragment 3, 1-Methyl-3-phenyl-1H-pyrazol-5-amine], in assay [1], the Z score was determined as 1.0 ± 0.4, the ΔTm at 1000 µM came to 2.2 ± 0.8 °C and the “ΔTm (repurchased fragment)” value was -0.2 ± 0.2 °C. Besides, the Kd in assay [2] (read-out: Kd) was determined as 5.8 ± 2 mM. In addition, in assay [2], the ΔH is -111.7 kcal/mol, the ΔS is -1.61 kJ (mol x K) and the LE is 0.23 kcal/(mol·heavy atom).

`Oc1ncnc2cccc(F)c12` [Fragment 4, 5-Fluoro-4-hydroxy quinazoline]: in assay [1], the Z score is given as 1.0 ± 0.8, the thermal shift (ΔTm) at 1000 µM was found to be 2.4 ± 1.1 °C and the “ΔTm (repurchased fragment)” value was found to be 0.2 ± 0.3 °C. Further, the dissociation constant Kd in assay [2] (read-out: Kd) was 12.8 ± 2.7 mM. In addition, in assay [2], the ΔH was found to be 1.98 kcal/mol, the ΔS is -0.01 kJ (mol x K) and the LE was 0.21 kcal/(mol·heavy atom).

As for `NC(=O)c1ccc(F)c(Cl)c1` [Fragment 5, 3-Chloro-4-fluorobenzamide], in assay [1], the Z score stood at 1.0 ± 0.8, the ΔTm at 1000 µM stood at 2.3 ± 1 °C and the “ΔTm (repurchased fragment)” value is -0.1 ± 0.2 °C. In addition, the dissociation constant (Kd) in assay [2] (read-out: Kd) is 1.6 ± 0.2 mM. For the same compound, in assay [2], the ΔH is -1.29 kcal/mol, the ΔS was -0.07 kJ (mol x K) and the LE was 0.35 kcal/(mol·heavy atom).

In the case of `Cc1cccc2cc[nH]c12` [Fragment 6, 7-Methyl-1H-indole], in assay [1], the Z score came to 1.1 ± 0.7, the shift in melting temperature (ΔTm) at 1000 µM came out at 2.4 ± 1.2 °C and the “ΔTm (repurchased fragment)” value turned out to be 0.2 ± 0.2 °C. The Kd in assay [2] (read-out: Kd) was 1.5 ± 0.2 mM. In assay [2], the ΔH was -380.95 kcal/mol, the ΔS was -5.40 kJ (mol x K) and the LE was 0.38 kcal/(mol·heavy atom).

For `Cc1cncc(Oc2cccc(CO)c2)n1` [Fragment 7, [3-(6-Methylpyrazin-2-yl)oxyphenyl] methanol], in assay [1], the Z score was found to be 1.2 ± 0.9, the ΔTm at 1000 µM turned out to be 1.8 ± 1.7 °C and the “ΔTm (repurchased fragment)” value is -0.3 ± 0.2 °C. Moreover, the Kd in assay [2] (read-out: Kd) came to 16.6 ± 10.4 mM. Also, in assay [2], the ΔH was determined as 3.78 kcal/mol, the ΔS was 0.02 kJ (mol x K) and the LE is 0.15 kcal/(mol·heavy atom).

Turning to `O=C1COc2cc(O)ccc21` [Fragment 8, 6-Hydroxy-2,3-dihydrobenzo[b] furan-3-one], in assay [1], the Z score was 1.5 ± 0.4, the ΔTm at 1000 µM was 1.7 ± 0.6 °C and the “ΔTm (repurchased fragment)” value turned out to be 0.4 ± 0.4 °C. The dissociation constant Kd in assay [2] (read-out: Kd) came out at 5.9 ± 1.5 mM. In assay [2], the ΔH was -69.96 kcal/mol, the ΔS is -1.02 kJ (mol x K) and the LE was 0.28 kcal/(mol·heavy atom).

With `Cn1ccc2cc(N)ccc21` [Fragment 9, 5-Amino-1-methyl-1H-indole], in assay [1], the Z score amounted to 1.8 ± 1.4, the ΔTm at 1000 µM was determined as 2 ± 1.2 °C and the “ΔTm (repurchased fragment)” value is 1.2 ± 0.4 °C. Also, in assay [2] (read-out: Kd), the Kd was 11.1 ± 5 mM. For the same compound, in assay [2], the ΔH was -24.38 kcal/mol, the ΔS was -0.38 kJ (mol x K) and the LE was 0.24 kcal/(mol·heavy atom).

Regarding `Nc1cccc(-c2cnco2)c1` [Fragment 10, 3-(1,3-oxazol-5-yl)aniline], in assay [1], the Z score was 1.0 ± 0.9, the thermal shift (ΔTm) at 1000 µM stood at 1.4 ± 0.6 °C and the “ΔTm (repurchased fragment)” value is -0.8 ± 0.3 °C. In assay [2], the ΔH is -62.33 kcal/mol and the ΔS was -0.91 kJ (mol x K).

Consider `Cc1cncc(Oc2cccc(N)c2)n1` [Fragment 11, 3-(6-Methylpyrazin-2-yl)oxyaniline], for which, in assay [1], the Z score is given as 1.1 ± 0.6, the ΔTm at 1000 µM was 1.7 ± 0.7 °C and the “ΔTm (repurchased fragment)” value was -0.6 ± 0.6 °C. In addition, the Kd in assay [2] (read-out: Kd) amounted to 11.5 ± 8.4 mM. In assay [2], the ΔH was -2.75 kcal/mol, the ΔS was -0.08 kJ (mol x K) and the LE is 0.18 kcal/(mol·heavy atom).

On to `c1ccc(Cn2ccnc2)cc1` [Fragment 12, 1-Benzylimidazole], for which, in assay [1], the Z score is on record as 1.1 ± 0.2, the ΔTm at 1000 µM was 1.3 ± 0.9 °C and the “ΔTm (repurchased fragment)” value is -0.6 ± 0.4 °C. Moreover, in assay [2] (read-out: Kd), the Kd turned out to be 11.8 ± 9.6 mM. In assay [2], the ΔH was -15.4 kcal/mol, the ΔS was -0.25 kJ (mol x K) and the LE was 0.22 kcal/(mol·heavy atom).

Consider `Oc1ccnc(O)c1` [Fragment 13, 2,4.Dihydroxy pyridine], for which, in assay [1], the Z score is 1.4 ± 0.2, the thermal shift (ΔTm) at 1000 µM came to 0.8 ± 0.1 °C and the “ΔTm (repurchased fragment)” value turned out to be 0.3 ± 0.1 °C. In addition, in assay [2], the Kd result is reported as “No competition”.

Take `Cc1ccc(F)cc1C(=O)O` [Fragment 14, 5-Fluoro-2-methylbenzoic acid]: in assay [1], the Z score is recorded as 1.1 ± 0.2, the shift in melting temperature (ΔTm) at 1000 µM worked out at 1.4 ± 0.5 °C and the “ΔTm (repurchased fragment)” value is 0.4 ± 0.3 °C. Moreover, in assay [2] (read-out: Kd), the dissociation constant Kd is 26 mM and 26.2 mM. In addition, in assay [2], the ΔH is -11.2 kcal/mol, the ΔS is -0.19 kJ (mol x K) and the LE is 0.2 kcal/(mol·heavy atom).

In the case of `Oc1noc2cc(Cl)ccc12` [Fragment 17, 6-chloro-3-hydroxybenzisoxazole], in assay [2] (read-out: Kd), the dissociation constant (Kd) worked out at 2.4 ± 0.7 mM. Besides, in assay [2], the ΔH was -362.64 kcal/mol, the ΔS is -5.14 kJ (mol x K) and the LE was 0.32 kcal/(mol·heavy atom).

`Cc1cccc2c(O)noc12` [Fragment 18]: the Kd in assay [2] (read-out: Kd) is 15.9 ± 7.4 mM. In addition, in assay [2], the ΔH is -46.44 kcal/mol, the ΔS is -0.67 kJ (mol x K) and the LE is 0.22 kcal/(mol·heavy atom). Further, the “fold reduced affinity compared to fragment 16” value in assay [2] (competitive ITC Kd, versus 16) is 2.5 fold.

Regarding `Oc1noc2ccc(F)cc12` [Fragment 19, 5-fluoro-3-hydroxybenzisoxazole], in assay [2] (read-out: Kd), the dissociation constant (Kd) was 15.4 ± 10.2 mM. Further, in assay [2], the ΔH was -45.43 kcal/mol, the ΔS was -0.67 kJ (mol x K) and the LE is 0.22 kcal/(mol·heavy atom). Further, the “fold weaker binding affinity compared to 17” value in assay [2] (competitive ITC Kd, versus 17) was 6 fold.

Consider `Oc1noc2ccc(Br)cc12` [Fragment 20], for which the equilibrium dissociation constant (Kd) result in assay [2] is reported as “no binding affinity was detected; also recorded: Compound precipitated”.

In the case of `NC(=O)C1=CN([C@@H]2O[C@H](COP(=O)(O)OP(=O)(O)OC[C@H]3O[C@@H](n4cnc5c(N)ncnc54)[C@H](O)[C@@H]3O)[C@@H](O)[C@H]2O)C=CC1` [NADH, reference compound], the thermal shift (ΔTm) in assay [1] (1 mM NADH positive control) turned out to be 7 °C. For the same compound, in assay [1] (1 mM NADH positive control, PHGDH alone Tm 54 °C), the “Tm of PHGDH in presence of compound” value was determined as 61 °C.
